Measured values as given in US20030045699A1, “Membrane receptors for steroids and sterols” (priority 2001, published 2003).

Tested on: polypeptide according to the invention (membrane receptor for steroids and sterols)
Experiment: Receptor binding studies (binding assay) with radiolabeled steroids and sterols
Set-up: species or system human
Settings: qualitative statement in the description; no value given
Experimental: In addition, the invention relates to a test system for identifying effectors of a polypeptide according to the invention, whereby a polypeptide according to the invention is incubated as a complete or partial sequence thereof with a steroid, a steroid analog or a sterol, and the amount of bound steroid, steroid analog or sterol is detected. As a partial sequence, e.g., the area that comprises the “leucine-rich repeats” and the island domain or shorter strands thereof can be used. The binding of the effectors can be measured, e.g., by labeled substances being used and the labeling (e.g., radioactivity or fluorescence) being measured. A displacement reaction can also be measured, however, by a binding labeled steroid being used and the displacement of the labeling by the receptor being measured after the addition of the substances to be tested. […]
Crude extracts and cytosol fractions (0.04 ml) were incubated at 4° C. for 2 hours with 10 μl of radioactive steroid or sterol (concentration in the batch 10 nmol/l) either in the absence or in the presence of a 100× excess of a non-radioactive substance (for determining the unspecific bond). […] After centrifuging (5 minutes, 15,000 g), an aliquot of the supernatant was removed, and the radioactivity was determined by means of a scintillation counter. […]

CC(C)=CCC[C@@H](C)[C@H]1CC=C2C3=C(CC[C@@]21C)[C@@]1(C)CC[C@H](O)C(C)(C)[C@@H]1CC3 [FF-MAS]
binding of the substance by the polypeptide according to the invention: binds
